Experiment: in vitro
Settings: human, hela cells, % viability

Q: Which viability at 28.5 h, 10 µM does the source give for CCNS(=O)(=O)c1ccc(Cn2nc(NC(=O)C3COc4ccccc4O3)c3ccccc32)cc1 (centres unmarked) [CBK061613] here?
A: The viability at 28.5 h, 10 µM was 109%.

Q: Which viability at 28.5 h, 10 µM does the source give for CN1CCC2(CC1)NCCc1c2ccn1S(=O)(=O)c1cccc2c(N(C)C)cccc12 [CBK061633C] here?
A: Its viability at 28.5 h, 10 µM is 105%.

Q: For CCN(C(=O)c1cnccn1)C(CC1CCCCC1)c1ccccc1 (centres unmarked) [CBK061638], which viability at 28.5 h, 10 µM is on record?
A: Its viability at 28.5 h, 10 µM is 92.9%.

Q: Which viability at 28.5 h, 10 µM does the source give for COc1ccc2[nH]c3c(c2c1)CCNC31CCN(C(=O)COc2ccccc2)C1 (centres unmarked) [CBK061661] here?
A: Its viability at 28.5 h, 10 µM is 88.8%.

Q: For Cc1c(C(N)=O)sc2nc(C(F)(F)F)cc(N)c12 [CBK061693], which viability at 28.5 h, 10 µM is on record?
A: The viability at 28.5 h, 10 µM was 97.1%.

Q: With CN(C)c1ccnc2sc(C(N)=O)c(N)c12 [CBK061708] as the compound, how does the viability at 28.5 h, 10 µM read?
A: The viability at 28.5 h, 10 µM was 94%.

Q: With O=C(Nc1cccc(C(F)(F)F)c1)Nc1cc(N2CCNCC2)c2occc2c1 [CBK061746C] as the compound, how does the viability at 28.5 h, 10 µM read?
A: Its viability at 28.5 h, 10 µM is 91.4%.

Q: With Cn1cc(CCCC(=O)NCCC2=CCCCC2)c2ccccc21 [CBK061756] as the compound, how does the viability at 28.5 h, 10 µM read?
A: The viability at 28.5 h, 10 µM was 99.2%.

Q: Which viability at 28.5 h, 10 µM does the source give for O=C(Nc1cc(N2CCNCC2)c2occc2c1)c1cccc(C(F)(F)F)c1 [CBK061762C] here?
A: The viability at 28.5 h, 10 µM was 86.5%.

Q: With CCNC(CO)c1ccccc1 (centres unmarked) [CBK061785] as the compound, how does the viability at 28.5 h, 10 µM read?
A: The viability at 28.5 h, 10 µM was 109%.

Q: With Fc1ccc(OCCN2CCC3(C2)OCCc2c3[nH]c3ccccc23)cc1 (centres unmarked) [CBK061787] as the compound, how does the viability at 28.5 h, 10 µM read?
A: Its viability at 28.5 h, 10 µM is 86.7%.

Q: Which viability at 28.5 h, 10 µM does the source give for Cc1ccc2[nH]cc(CCN3CCC4(C3)OCCc3c4[nH]c4ccccc34)c2c1 (centres unmarked) [CBK061790] here?
A: Its viability at 28.5 h, 10 µM is 84.7%.

Q: For CC(=O)c1ccc(-c2ccc3ccc(N)nc3n2)cc1 [CBK061862], which viability at 28.5 h, 10 µM is on record?
A: The viability at 28.5 h, 10 µM was 84.4%.

Q: With Nc1ccc2ccc(-c3ccccc3)nc2n1 [CBK061865] as the compound, how does the viability at 28.5 h, 10 µM read?
A: The viability at 28.5 h, 10 µM was 97%.

Q: Which viability at 28.5 h, 10 µM does the source give for CC(C)(C)c1ccc(-c2ccc3ccc(N)nc3n2)cc1 [CBK061872] here?
A: Its viability at 28.5 h, 10 µM is 79.3%.

Q: For CC(=O)c1ccc(-c2nc(NS(C)(=O)=O)cc3cccnc23)cc1 [CBK061874], which viability at 28.5 h, 10 µM is on record?
A: The viability at 28.5 h, 10 µM was 96.3%.

Q: For COc1cc(-c2nc(N)cc3cccnc23)cc(OC)c1OC [CBK061892], which viability at 28.5 h, 10 µM is on record?
A: The viability at 28.5 h, 10 µM was 101%.

Q: With CS(=O)(=O)Nc1ccc2cc(-c3ccccc3)cnc2n1 [CBK061899] as the compound, how does the viability at 28.5 h, 10 µM read?
A: The viability at 28.5 h, 10 µM was 91.2%.

Q: For CN1CCC2(CC1)NCCc1c2ccn1S(=O)(=O)c1ccc(I)cc1 [CBK061945C], which viability at 28.5 h, 10 µM is on record?
A: Its viability at 28.5 h, 10 µM is 111%.

Q: For Cc1nn(C)c(Cl)c1S(=O)(=O)Nc1nnc(C(F)(F)F)s1 [CBK062003], which viability at 28.5 h, 10 µM is on record?
A: Its viability at 28.5 h, 10 µM is 92%.

Q: Which viability at 28.5 h, 10 µM does the source give for O=S(=O)(Nc1nnc(C(F)(F)F)s1)c1ccc(Oc2ccccc2)cc1 [CBK062007] here?
A: The viability at 28.5 h, 10 µM was 92.6%.

Q: With O=S(=O)(Nc1nnc(C(F)(F)F)s1)c1csc2ccccc12 [CBK062009] as the compound, how does the viability at 28.5 h, 10 µM read?
A: Its viability at 28.5 h, 10 µM is 95.9%.

Q: For O=S(=O)(Nc1nnc(C(F)(F)F)s1)c1ccc(Br)cc1C(F)(F)F [CBK062013], which viability at 28.5 h, 10 µM is on record?
A: The viability at 28.5 h, 10 µM was 96.7%.

Q: For Cc1nnc(-c2cccc(S(=O)(=O)Nc3nnc(C(F)(F)F)s3)c2)o1 [CBK062014], which viability at 28.5 h, 10 µM is on record?
A: The viability at 28.5 h, 10 µM was 99.1%.

Q: For Cn1nc(-c2ccc(S(=O)(=O)Nc3nnc(C(F)(F)F)s3)s2)cc1C(F)(F)F [CBK062017], which viability at 28.5 h, 10 µM is on record?
A: The viability at 28.5 h, 10 µM was 103%.

Q: For O=S(=O)(Nc1nnc(C(F)(F)F)s1)c1ccc(-c2cc(C(F)(F)F)on2)s1 [CBK062019], which viability at 28.5 h, 10 µM is on record?
A: The viability at 28.5 h, 10 µM was 91.1%.

Q: For O=S(=O)(NC1CCN(Cc2ccccc2)CC1)c1ccc(-c2ccon2)s1 [CBK062038], which viability at 28.5 h, 10 µM is on record?
A: Its viability at 28.5 h, 10 µM is 93.5%.

Q: With Cn1nccc1NS(=O)(=O)c1cccc2cccnc12 [CBK062069] as the compound, how does the viability at 28.5 h, 10 µM read?
A: The viability at 28.5 h, 10 µM was 98.9%.

Q: For Cc1nn(C)c(Cl)c1S(=O)(=O)Nc1ccnn1C [CBK062072], which viability at 28.5 h, 10 µM is on record?
A: Its viability at 28.5 h, 10 µM is 85.6%.

Q: With Cn1nccc1NS(=O)(=O)c1ccc(Br)cc1C(F)(F)F [CBK062082] as the compound, how does the viability at 28.5 h, 10 µM read?
A: The viability at 28.5 h, 10 µM was 104%.

Q: For Cn1nccc1NS(=O)(=O)c1ccc(-c2cc(C(F)(F)F)on2)s1 [CBK062087], which viability at 28.5 h, 10 µM is on record?
A: The viability at 28.5 h, 10 µM was 97.4%.

Q: Which viability at 28.5 h, 10 µM does the source give for O=S(=O)(Nc1ccc(C(O)(C(F)(F)F)C(F)(F)F)cc1)c1cccc2cccnc12 [CBK062092] here?
A: Its viability at 28.5 h, 10 µM is 91%.

Q: Which viability at 28.5 h, 10 µM does the source give for O=[N+]([O-])c1cccc(S(=O)(=O)Nc2ccc(C(O)(C(F)(F)F)C(F)(F)F)cc2)c1 [CBK062093] here?
A: Its viability at 28.5 h, 10 µM is 102%.

Q: With O=S(=O)(Nc1ccc(C(O)(C(F)(F)F)C(F)(F)F)cc1)c1csc2ccccc12 [CBK062098] as the compound, how does the viability at 28.5 h, 10 µM read?
A: Its viability at 28.5 h, 10 µM is 85.4%.

Q: Which viability at 28.5 h, 10 µM does the source give for O=[N+]([O-])c1cc(S(=O)(=O)Nc2ccc(C(O)(C(F)(F)F)C(F)(F)F)cc2)ccc1Cl [CBK062106] here?
A: Its viability at 28.5 h, 10 µM is 92.9%.

Q: With Cc1noc(C)c1S(=O)(=O)NCc1ccc(C(F)(F)F)c(F)c1 [CBK062112] as the compound, how does the viability at 28.5 h, 10 µM read?
A: Its viability at 28.5 h, 10 µM is 94.2%.

Q: Which viability at 28.5 h, 10 µM does the source give for O=S(=O)(NCc1ccc(C(F)(F)F)c(F)c1)c1cccc2nsnc12 [CBK062113] here?
A: The viability at 28.5 h, 10 µM was 94.3%.

Q: For CS(=O)(=O)Nc1cccc(-c2nnn[nH]2)c1 [CBK062150], which viability at 28.5 h, 10 µM is on record?
A: The viability at 28.5 h, 10 µM was 90.4%.

Q: With Cc1nn(C)c(Cl)c1S(=O)(=O)NCc1cc(C)n(C)n1 [CBK062154] as the compound, how does the viability at 28.5 h, 10 µM read?
A: The viability at 28.5 h, 10 µM was 94.5%.

Q: For Cc1noc(C)c1S(=O)(=O)NCc1cc(C)n(C)n1 [CBK062155], which viability at 28.5 h, 10 µM is on record?
A: The viability at 28.5 h, 10 µM was 103%.

Q: Which viability at 28.5 h, 10 µM does the source give for Cc1cc(CNS(=O)(=O)c2cccc3nonc23)nn1C [CBK062157] here?
A: The viability at 28.5 h, 10 µM was 98.2%.

Q: For CCc1nnc(NS(=O)(=O)c2c(C)nn(C)c2Cl)s1 [CBK062180], which viability at 28.5 h, 10 µM is on record?
A: The viability at 28.5 h, 10 µM was 112%.

Q: For CCc1nnc(NS(C)(=O)=O)s1 [CBK062197], which viability at 28.5 h, 10 µM is on record?
A: Its viability at 28.5 h, 10 µM is 93%.

Q: For O=S(=O)(Nc1cc(Cl)nc(Cl)c1)c1ccc(-c2cc(C(F)(F)F)on2)s1 [CBK062215], which viability at 28.5 h, 10 µM is on record?
A: The viability at 28.5 h, 10 µM was 90.9%.
